Source: patent US20210163471A1, “PROGRANULIN MODULATORS AND METHODS OF USING THE SAME” (ARKUDA THERAPEUTICS, priority 2017, published 2021)

These compounds were tested on BV-2 (mouse microglia) cells (assay: progranulin secretion from BV-2 cells, mouse progranulin ELISA of conditioned media). Details: BV-2 cells, 16 hours incubation, 8-point curves starting at 10 μM; assay run v2 (same protocol, different assay); read-out: PRGN v2 (EC50, progranulin secretion).
Type: cell-based
Summary of the method: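 Mouse BV-2 microglia plated at 30,000 cells/well in RPMI/L-glutamine with 2% Fetal clone serum II, 1 h attachment. Treated for 16 h with 8-point half-log dilutions from 10 μM. Secreted progranulin measured by mouse progranulin ELISA on 1:10-diluted conditioned media.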
Compound `CC1(C)[C@@H](OC(=O)N2CCc3ccccc3[C@@H]2c2ccc(F)cc2)C2CCN1CC2` [Compound 1144] has an EC50 of over 10 µM. For `CC1(C)[C@H](OC(=O)N2CCc3ccccc3[C@@H]2c2ccc(F)cc2)C2CCN1CC2` [Compound 1145], the EC50 was 0.57 µM.

Same assay, conditions: Mus musculus, BV-2, 16 h, BV-2 cells, 16 hours incubation, 8-point curves starting at 10 μM; assay run v2 (same protocol, different assay); read-out: PRGN v2 (EC50, progranulin secretion)
`O=S(=O)(C[C@@H]1CN2CCC1CC2)N1CCc2ccccc2[C@@H]1c1ccccc1` [Compound 1140] was tested, and the EC50 was over 10 µM. `O=S(=O)(C[C@@H]1CN2CCC1CC2)N1CCc2ccccc2[C@H]1c1ccccc1` [Compound 1141] showed an EC50 of 3.36 µM. With `O=S(=O)(C[C@H]1CN2CCC1CC2)N1CCc2ccccc2[C@@H]1c1ccccc1` [Compound 1142] the EC50 was over 10 µM. `O=S(=O)(C[C@H]1CN2CCC1CC2)N1CCc2ccccc2[C@H]1c1ccccc1` [Compound 1143] was tested, and the EC50 was over 10 µM.

Same assay, conditions: Mus musculus; BV-2 cells, 16 hours incubation, 8-point curves starting at 10 μM; assay run v2 (same protocol, different assay); read-out: PRGN v2 (EC50, progranulin secretion)
Compound `Cc1nc2ccc([C@@H]3c4ccccc4CCN3C(=O)O[C@@H]3CN4CCC3CC4)cc2o1` [Compound 1139] has an EC50 of over 10 µM. `COCCOCCOCCNC(=O)c1ccc([C@H]2c3ccccc3CCN2C(=O)O[C@@H]2CN3CCC2CC3)cc1` [Compound 1146] showed an EC50 of over 10 µM. Compound `COCCOCCOCCNC(=O)c1ccc([C@@H]2c3ccccc3CCN2C(=O)O[C@@H]2CN3CCC2CC3)cc1` [Compound 1147] has an EC50 of over 10 µM. In the case of `CC1(C)[C@@H](OC(=O)N2CCc3ccccc3[C@@H]2c2cccc(F)c2F)C2CCN1CC2` [Compound 1148], the EC50 is reported as over 10 µM. In the case of `CC1(C)C(OC(=O)N2CCc3ccccc3[C@H]2c2cccc(F)c2F)C2CCN1CC2` (stereo partly drawn) [Compound 1149], the EC50 is reported as 0.43 µM.

Same assay, conditions: mouse BV2 cells
In the case of `O=C(O[C@H]1CN2CCC1CC2)N1CCc2ccccc2[C@@H]1c1ccccc1` [Solifenacin, solifenacin, reference compound], the “secretion of progranulin from mouse BV2 cells” value is reported as “causes the secretion of progranulin from mouse BV2 cells”.
